Measurements from patent US20150080305A1, “APPLICATION OF INITIAL DOSES OF LHRH ANALOGUES AND MAINTENANCE DOSES OF LHRH ANTAGONISTS FOR THE TREATMENT OF HORMONE-DEPENDENT CANCERS AND CORRESPONDING PHARMACEUTICAL KITS” (AETERNA ZENTARIS GmbH, priority 2006, published 2015).
Square brackets hold non-standard residues; d marks the D form. Peptide text beside a SMILES is read from it. dPhe(4-Cl) = N[C@H](Cc1ccc(Cl)cc1)C(=O)O; d2Nal = N[C@H](Cc1ccc2ccccc2c1)C(=O)O; dCit = NC(=O)NCCC[C@@H](N)C(=O)O; d3Pal = N[C@H](Cc1cccnc1)C(=O)O

Experiments:
[1] = tested on: hormone concentration; settings: volunteer tests; cited from earlier work
[2] = tested on: testosterone levels; assay: Testosterone levels in prostate cancer patients under initial/maintenance dose regimen; assay type: in vivo, human; settings: for testosterone levels during first period: prostate cancer patients
Experimental: (§1) 130 mg ozarelix is given as a single monthly initial dose per i.m. injection every 4 weeks to patients suffering from prostate cancer for a first period of 3 months. […] Subsequently, patients are treated with single monthly maintenance doses of 30 mg ozarelix given per i.m. injection over a period of 6 months. […] The treatment scheme is then repeated continuously (chronic treatment).
(§2) 00 mg ozarelix is given as a single initial dose per i.m. injection once every 3 months to patients suffering from prostate cancer for a first period of 3 to 6 months. […] Subsequently, patients are treated with single monthly maintenance doses of 40 mg ozarelix given per i.m. injection over a period of 6 months. […] The treatment scheme is then repeated continuously (chronic treatment).
as §1, with “3.75” for “130”, “leuprorelin (leuprolide) are” for “ozarelix is”, “6” for “3”, “20” for “30”, “9” for “6”
as §2, with “11.25” for “00”, “leuprorelin (leuprolide) are” for “ozarelix is”, “three” for “3”, “3” for “3 to 6”, “50” for “40”, “3” for “6”

[3] = tested on: PSA levels; assay: PSA levels in prostate cancer patients under initial/maintenance dose regimen; assay type: in vivo, human; settings: for PSA levels decrease during first period: prostate cancer patients
Experimental: as §1, §2
as §1, with “3.75” for “130”, “leuprorelin (leuprolide) are” for “ozarelix is”, “6” for “3”, “20” for “30”, “9” for “6”
as §2, with “11.25” for “00”, “leuprorelin (leuprolide) are” for “ozarelix is”, “three” for “3”, “3” for “3 to 6”, “50” for “40”, “3” for “6”

[4] = Example 3: 3.75 mg single monthly initial dose i.m. every 4 weeks, first period of 6 months
[5] = Example 4: 11.25 mg single initial dose i.m. once every three months, first period of 3 months
[6] = Example 1: 130 mg single monthly initial dose i.m. every 4 weeks, first period of 3 months
[7] = Example 1: single monthly maintenance doses of 30 mg i.m. over 6 months, after 130 mg ozarelix initial doses
[8] = Example 2: 00 mg single initial dose i.m. once every 3 months, first period of 3 to 6 months
[9] = Example 2: single monthly maintenance doses of 40 mg i.m. over 6 months, after ozarelix initial doses
[10] = Example 3: single monthly maintenance doses of 20 mg i.m. over 9 months, after 3.75 mg leuprorelin initial doses
[11] = Example 4: single monthly maintenance doses of 50 mg i.m. over 3 months, after 11.25 mg leuprorelin initial dose

## CC(=O)N[C@H](Cc1ccc2ccccc2c1)C(=O)N[C@H](Cc1ccc(Cl)cc1)C(=O)N[C@H](Cc1cccnc1)C(=O)N[C@@H](CO)C(=O)N[C@@H](Cc1ccc(O)cc1)C(=O)N[C@H](CCCNC(N)=O)C(=O)N[C@@H](CC(C)C)C(=O)N[C@@H](CCCNC(=N)N)C(=O)N1CCC[C@H]1C(=O)N[C@H](C)C(N)=O [cetrorelix] (Ac-[d2Nal][dPhe(4-Cl)][d3Pal]SY[dCit]LRP[dA]-NH2)
[1]
  dose necessary for complete suppression of the hormone concentration to castration level: 10 mg daily

## CCNC(=O)[C@@H]1CCCN1C(=O)[C@H](CCCNC(=N)N)NC(=O)[C@H](CC(C)C)NC(=O)[C@@H](CC(C)C)NC(=O)[C@H](Cc1ccc(O)cc1)NC(=O)[C@H](CO)NC(=O)[C@H](Cc1c[nH]c2ccccc12)NC(=O)[C@H](Cc1c[nH]cn1)NC(=O)[C@@H]1CCC(=O)N1 [leuprorelin, reference compound]
[2]; [4]
  testosterone levels during first period: quickly reach castration level
[2]; [5]
  testosterone levels during first period: quickly reach castration level
[3]; [4]
  PSA levels decrease during first period: up to 95%
[3]; [5]
  PSA levels decrease during first period: up to 95%

## ozarelix
[2]; [6]
  testosterone levels during first period: quickly reach castration level
[2]; [7]
  testosterone levels during second period: above 0.5 ng/mL
[2]; [8]
  testosterone levels during first period: quickly reach castration level
[2]; [9]
  testosterone levels during second period: above 0.5 ng/mL
[2]; [10]
  testosterone levels during second period: above 0.5 ng/mL
[2]; [11]
  testosterone levels during second period: above 0.5 ng/mL
[3]; [6]
  PSA levels decrease during first period: up to 95%
[3]; [7]
  PSA levels during second period: remain stably low
[3]; [8]
  PSA levels decrease during first period: up to 95%
[3]; [9]
  PSA levels during second period: remain stably low
[3]; [10]
  PSA levels during second period: remain stably low
[3]; [11]
  PSA levels during second period: remain stably low
